Read-outs that look alike come from different tables or passages of the source. Values belong to the molecule of their own block, whether it stands above or below them.
Tests used:
[1] = Determination of inhibitor concentration in mouse plasma after intraperitoneal and oral dosing; assay type: in vivo
Procedure: Blood collection was via ocular bleed at 0.5, 1, 4 hr with the final time point, 7 hour, via intracardiac puncture. The blood was centrifuged to collect plasma, which was then stored at −80° C. until analysis. Samples were prepared for analysis using an internal standard and sodium hydroxide. After vortexing, ethyl acetate was added and mixed for 15-20 minutes at ambient temperature. […] The samples were then analyzed via HPLC or LC-MS. Compound levels were quantitated by generating a standard curve of known compound concentration in mouse plasma.

[2] = tested on: human umbilical vein endothelial cells (HUVEC); experiment: HUVEC proliferation assay (VEGF-stimulated, MTT); assay type: cell-based; settings: crude reaction mixtures; for % inhibition: Library III, HUVEC proliferation, nominal concentration of 0.5 nM;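 for % inhibition of the proliferation of HUVEC: relative to VEGF-stimulated control minus starvation-medium baseline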
[3] = female, PO, 25 mg/kg, vehicle 0.5% CMC
[4] = female, PO, 25 mg/kg, vehicle 0.5% CMC, read-out: Cmax
[5] = female, PO, 25 mg/kg, vehicle 0.5% CMC, read-out: Cmin (7 hr conc.)
[6] = IP, 25 mg/kg, vehicle PEG400:H2O pH 2.3 60:40
[7] = PO, 50 mg/kg, vehicle PEG400:H2O pH 2.3 60:40
[8] = PO, 25 mg/kg, vehicle PEG400:H2O pH 2.3 30:70
[9] = female, PO, 25 mg/kg, vehicle PEG400:H2O pH 2.3 30:70, read-out: Cmin (7 hr conc.)
[10] = Library II, Y=S, 0.5 mM (column head; text: nominal 0.5 nM)
[11] = Library II, Y=S, 2 mM (column head; text: nominal 2 nM)
[12] = Library I, Y = CO, nominal concentration of 10 nM
[13] = Library I, Y = NH, nominal concentration of 10 nM
[14] = Library I, Y = O, nominal concentration of 10 nM

SMILES: CCn1nc(C)cc1C(=O)Nc1cccc(C(=O)c2ccc3c(/C=C/c4ccccn4)n[nH]c3c2)c1.Cl [Example 59(a), 6-[3-((1-Ethyl-3-methyl-1H-pyrazol-5-yl)carboxamido)benzoyl]-3-E-[2-(pyridin-2-yl)ethenyl]-1H-indazole Hydrochloride]
plasma half-life (T1/2) ([1]; PO, 8 mg/kg, vehicle 0.5% CMC): 1.5 h
plasma half-life (T1/2) ([1]; PO, 40 mg/kg, vehicle 0.5% CMC): 2.4 h
plasma half-life (T1/2) ([1]; PO, 200 mg/kg, vehicle 0.5% CMC): 9.4 h
AUC(0-t) ([1]; female, PO, 8 mg/kg, vehicle 0.5% CMC): 7710 ng·h/mL
Cmax ([1]; female, PO, 8 mg/kg, vehicle 0.5% CMC, read-out: Cmax): 2490 ng/mL
concentration at 7 h ([1]; female, PO, 8 mg/kg, vehicle 0.5% CMC, read-out: Cmin (7 hr conc.)): 122 ng/mL
AUC(0-t) [1, 3]: 50800 ng·h/mL
Cmax [1, 4]: 15900 ng/mL
concentration at 7 h [1, 5]: 1200 ng/mL
AUC(0-t) ([1]; female, PO, 40 mg/kg, vehicle 0.5% CMC): 57200 ng·h/mL
Cmax ([1]; female, PO, 40 mg/kg, vehicle 0.5% CMC, read-out: Cmax): 13800 ng/mL
concentration at 7 h ([1]; female, PO, 40 mg/kg, vehicle 0.5% CMC, read-out: Cmin (7 hr conc.)): 1880 ng/mL
AUC(0-t) ([1]; female, PO, 200 mg/kg, vehicle 0.5% CMC): 156000 ng·h/mL
Cmax ([1]; female, PO, 200 mg/kg, vehicle 0.5% CMC, read-out: Cmax): 30000 ng/mL
concentration at 7 h ([1]; female, PO, 200 mg/kg, vehicle 0.5% CMC, read-out: Cmin (7 hr conc.)): 12100 ng/mL

SMILES: Cc1ccc2cc(NC(=O)c3ccccc3Sc3ccc4c(/C=C/c5ccccn5)n[nH]c4c3)ccc2n1 [Example 33(b)]
AUClast [1, 6]: 11245 ng·h/mL
Cmax [1, 6]: 1990 ng/mL
plasma half-life (T1/2) [1, 6]: 3.0 h
AUClast [1, 7]: 3925 ng·h/mL
Cmax [1, 7]: 1496 ng/mL
plasma half-life (T1/2) [1, 7]: 3.0 h
concentration at 7 h ([1]; female, IP, 25 mg/kg, vehicle PEG400:H2O pH 2.3 60:40, read-out: Cmin (7 hr conc.)): 902 ng/mL
concentration at 7 h ([1]; female, PO, 50 mg/kg, vehicle PEG400:H2O pH 2.3 60:40, read-out: Cmin (7 hr conc.)): 76 ng/mL

SMILES: Cc1cc(C(=O)Nc2cc(C(=O)c3ccc4c(/C=C/c5ccccn5)n[nH]c4c3)ccc2C)n(C)n1 [Example 41(hh), 6-[3-((1,3-Dimethyl-1H-pyrazol-5-yl)carboxaindo)-4-methylbenzoyl]-3-E-[2-(pyridin-2-yl)ethenyl]-1H-indazole]
AUClast [1, 8]: 5601 ng·h/mL
Cmax [1, 8]: 1526 ng/mL
plasma half-life (T1/2) [1, 8]: 7.9 h
concentration at 7 h [1, 9]: 405 ng/mL

SMILES: CCn1nc(C)cc1C(=O)Nc1cccc(Oc2ccc3c(/C=C/c4ccccn4)n[nH]c3c2)c1.Cl [Example 59(e), 6-[3-((1-Ethyl-3-methyl-1H-pyrazol-5-yl)carboxamido)phenoxy]-3-E-[2-(pyridin-2-yl)ethenyl]-1H-indazole Hydrochloride]
plasma half-life (T1/2) ([1]; PO, 25 mg/kg, vehicle 0.5% CMC): 21 h
AUC(0-t) [1, 3]: 12500 ng·h/mL
Cmax [1, 4]: 28800 ng/mL
concentration at 7 h [1, 5]: 2140 ng/mL

AUClast [1, 8]: 292 ng·h/mL
plasma half-life (T1/2) [1, 8]: 1.7 h
concentration at 7 h [1, 9]: 5 ng/mL
SMILES: O=C(NCCc1cccs1)c1ccccc1Sc1ccc2c(/C=C/c3ccccn3)n[nH]c2c1 [Example 35(hh), 6-[2-(2-(Thien-2-yl)ethylcarbamoyl)phenylsulfanyl]-3-E-[2-(pyridin-2-yl)ethenyl]-1H-indazole]

AUClast [1, 8]: 10949 ng·h/mL
plasma half-life (T1/2) [1, 8]: 4.4 h
concentration at 7 h [1, 9]: 749 ng/mL
SMILES: CCc1cc(C(=O)Nc2cccc(C(=O)c3ccc4c(/C=C/c5ccccn5)n[nH]c4c3)c2)n(C)n1 [Example 41(v), 6-[3-((3-Ethyl-1-methyl-1H-pyrazol-5-yl)carboxamido)benzoyl]-3-E-[2-(pyridin-2-yl)ethenyl]-1H-indazole]

SMILES: O=C(NCC(F)(F)F)c1ccccc1Sc1ccc2c(/C=C/c3ccccn3)n[nH]c2c1 [drawing 626]
% inhibition of the proliferation of HUVEC [2, 10]: 34%
% inhibition of the proliferation of HUVEC [2, 11]: 61%

SMILES: O=C(NCCc1ccccc1)c1ccccc1Sc1ccc2c(/C=C/c3ccccn3)n[nH]c2c1
% inhibition of the proliferation of HUVEC [2, 10]: 15%
% inhibition of the proliferation of HUVEC [2, 11]: 99%

SMILES: O=C(Nc1cccc2ncccc12)c1ccccc1Sc1ccc2c(/C=C/c3ccccn3)n[nH]c2c1
% inhibition [2]: −37%

SMILES: O=C(NCCCCCO)c1ccccc1Sc1ccc2c(/C=C/c3ccccn3)n[nH]c2c1
% inhibition [2]: −2%

SMILES: CN(C)CCCCNC(=O)c1ccccc1Sc1ccc2c(/C=C/c3ccccn3)n[nH]c2c1
% inhibition of the proliferation of HUVEC [2, 10]: 23%
% inhibition of the proliferation of HUVEC [2, 11]: 16%

SMILES: CCOc1ccccc1CCNC(=O)c1ccccc1Sc1ccc2c(/C=C/c3ccccn3)n[nH]c2c1
% inhibition [2]: 1%

SMILES: O=C(Nc1nncs1)c1ccccc1Sc1ccc2c(/C=C/c3ccccn3)n[nH]c2c1
% inhibition of the proliferation of HUVEC [2, 10]: 44%
% inhibition of the proliferation of HUVEC [2, 11]: 28%

SMILES: O=C(Nc1ccc(Cl)cc1CO)c1ccccc1Sc1ccc2c(/C=C/c3ccccn3)n[nH]c2c1
% inhibition [2]: 48%

SMILES: O=C(Nc1nc2ccccc2s1)c1ccccc1Sc1ccc2c(/C=C/c3ccccn3)n[nH]c2c1
% inhibition [2]: −15%

SMILES: O=C(Nc1cccnc1)c1ccccc1Sc1ccc2c(/C=C/c3ccccn3)n[nH]c2c1
% inhibition [2]: −2%

SMILES: Cn1nc(C2CC2)cc1NC(=O)c1ccccc1Sc1ccc2c(/C=C/c3ccccn3)n[nH]c2c1
% inhibition [2]: −47%

SMILES: O=C(Nc1cccnc1)c1ccc2c(-c3nc4ccccc4[nH]3)n[nH]c2c1
% inhibition of the proliferation of HUVEC [2, 12]: −2%
% inhibition of the proliferation of HUVEC [2, 13]: 17%
% inhibition of the proliferation of HUVEC [2, 14]: 25%

SMILES: COc1cc(CNC(=O)c2ccccc2Sc2ccc3c(/C=C/c4ccccn4)n[nH]c3c2)cc(OC)c1
% inhibition [2]: 37%

SMILES: CCC(C)C(NC(=O)c1ccccc1Sc1ccc2c(C=Cc3ccccn3)n[nH]c2c1)C(=O)NO (stereo not drawn)
% inhibition [2]: 9%

SMILES: CCCCCC(C)NC(=O)c1ccccc1Sc1ccc2c(/C=C/c3ccccn3)n[nH]c2c1 (stereo not drawn)
% inhibition of the proliferation of HUVEC [2, 10]: −1%
% inhibition of the proliferation of HUVEC [2, 11]: 14%

SMILES: O=C(Nc1ccccc1)c1ccc2c(-c3nc4ccccc4[nH]3)n[nH]c2c1
% inhibition of the proliferation of HUVEC [2, 12]: 3%
% inhibition of the proliferation of HUVEC [2, 13]: 16%
% inhibition of the proliferation of HUVEC [2, 14]: 24%

SMILES: Cc1cccc(NC(=O)c2ccccc2Sc2ccc3c(/C=C/c4ccccn4)n[nH]c3c2)n1
% inhibition [2]: 10%

SMILES: O=C(NCc1ccc(Cl)cc1)c1ccccc1Sc1ccc2c(/C=C/c3ccccn3)n[nH]c2c1
% inhibition [2]: 4%

SMILES: COc1cccc(C)c1NC(=O)c1ccccc1Sc1ccc2c(/C=C/c3ccccn3)n[nH]c2c1
% inhibition [2]: 8%

SMILES: N#CCONC(=O)c1ccccc1Sc1ccc2c(/C=C/c3ccccn3)n[nH]c2c1
% inhibition of the proliferation of HUVEC [2, 10]: 16%
% inhibition of the proliferation of HUVEC [2, 11]: 2%

SMILES: NC(=O)c1ccccc1NC(=O)c1ccccc1Sc1ccc2c(/C=C/c3ccccn3)n[nH]c2c1
% inhibition [2]: 7%

SMILES: O=C(Nc1cccc2cnccc12)c1ccccc1Sc1ccc2c(/C=C/c3ccccn3)n[nH]c2c1
% inhibition [2]: 1%

SMILES: CCOc1ccccc1CNC(=O)c1ccccc1Sc1ccc2c(/C=C/c3ccccn3)n[nH]c2c1
% inhibition [2]: −9%

SMILES: COC(=O)c1ccc(NC(=O)c2ccc3c(-c4nc5ccccc5[nH]4)n[nH]c3c2)o1 [drawing 608]
% inhibition of the proliferation of HUVEC [2, 10]: 38%
% inhibition of the proliferation of HUVEC [2, 11]: 2%

SMILES: CCC(COC)NC(=O)c1ccccc1Sc1ccc2c(/C=C/c3ccccn3)n[nH]c2c1 (stereo not drawn)
% inhibition of the proliferation of HUVEC [2, 10]: 1%
% inhibition of the proliferation of HUVEC [2, 11]: 65%

SMILES: COc1ccc(NC(=O)c2ccccc2Sc2ccc3c(/C=C/c4ccccn4)n[nH]c3c2)cc1OC
% inhibition [2]: 1%

SMILES: COc1ccc(NC(=O)c2ccccc2Sc2ccc3c(/C=C/c4ccccn4)n[nH]c3c2)cc1Cl
% inhibition [2]: 2%

SMILES: O=C(c1ccc2c(-c3nc4ccccc4[nH]3)n[nH]c2c1)N1CCCC1
% inhibition of the proliferation of HUVEC [2, 12]: 8%
% inhibition of the proliferation of HUVEC [2, 13]: 0%
% inhibition of the proliferation of HUVEC [2, 14]: 23%

SMILES: COC(=O)c1ccc(NC(=O)c2ccccc2Sc2ccc3c(/C=C/c4ccccn4)n[nH]c3c2)c(C)c1
% inhibition [2]: −46%

SMILES: N#CCNC(=O)c1ccccc1Sc1ccc2c(/C=C/c3ccccn3)n[nH]c2c1
% inhibition of the proliferation of HUVEC [2, 10]: 18%
% inhibition of the proliferation of HUVEC [2, 11]: 40%

SMILES: O=C(Nc1cc(Cl)ccc1Cl)c1ccccc1Sc1ccc2c(/C=C/c3ccccn3)n[nH]c2c1
% inhibition [2]: 15%

SMILES: O=C(NCCc1cccc(F)c1)c1ccccc1Sc1ccc2c(/C=C/c3ccccn3)n[nH]c2c1
% inhibition [2]: 4%

SMILES: O=C(Nc1ncc(Cl)cc1Cl)c1ccccc1Sc1ccc2c(/C=C/c3ccccn3)n[nH]c2c1
% inhibition [2]: 4%

SMILES: COC(=O)c1ccc(NC(=O)c2ccccc2Sc2ccc3c(/C=C/c4ccccn4)n[nH]c3c2)cc1
% inhibition [2]: −1%

SMILES: O=C(NCCCN1CCCC1=O)c1ccccc1Sc1ccc2c(/C=C/c3ccccn3)n[nH]c2c1
% inhibition of the proliferation of HUVEC [2, 10]: 25%
% inhibition of the proliferation of HUVEC [2, 11]: 35%

SMILES: CCC(C)C(CO)NC(=O)c1ccccc1Sc1ccc2c(C=Cc3ccccn3)n[nH]c2c1 (stereo not drawn)
% inhibition [2]: −40%

SMILES: O=C(NCc1ccc(F)cc1Cl)c1ccccc1Sc1ccc2c(/C=C/c3ccccn3)n[nH]c2c1
% inhibition [2]: −7%
